Assay results reported in patent US20070010671A1, “Novel quinazoline derivatives and methods of treatment related to the use thereof” (priority 2003, published 2007).

Molecular target: MCH receptor (Homo sapiens, UniProt Q99705)
Assay: High throughput functional screening FLIPR/FDSS6000: inhibition of MCH-evoked intracellular Ca2+ changes
Assay type: cell-based
Conditions: class by percent of control at 10^−7 M or by IC50; read-out: class
Procedure, shortened: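 Cells expressing a non-endogenous, constitutively active MCH receptor were loaded with 4 μM Fluo4-AM (with probenecid) for 1 hr at 37° C. Test compound was preincubated 3 min at 37° C before 50 nM MCH was added. The [Ca2+]i transient was read at Ex 488/Em 530 nm for 290 s.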

Row | Structure (SMILES) | IC50 [µM]
1 | CN(C)c1nc(N[C@H]2CC[C@@H](NC(=O)c3cccnc3Oc3ccccc3Br)CC2)nc2ccccc12 [Example 1032, 2-(2-bromophenoxy)-N-(cis-4-{[4-(dimethylamino)quinazolin-2-yl]amino}cyclohexyl)nicotinamide] | < 0.05
2 | CN(C)c1nc(N[C@H]2CC[C@@H](NC(=O)c3cccnc3Oc3ccccc3OC(F)(F)F)CC2)nc2ccccc12 [Example 1033, N-(cis-4-{[4-(dimethylamino)quinazolin-2-yl]amino}cyclohexyl)-2-[2-(trifluoromethoxy)phenoxy]nicotinamide] | < 0.05
3 | CN(C)c1nc(N[C@H]2CC[C@@H](NC(=O)c3cccnc3Oc3cccc(F)c3)CC2)nc2ccccc12 [Example 1034, N-(cis-4-{[4-(dimethylamino)quinazolin-2-yl]amino}cyclohexyl)-2-(3-fluorophenoxy)nicotinamide] | < 0.05
4 | COc1cccc(Oc2ncccc2C(=O)N[C@H]2CC[C@@H](Nc3nc(N(C)C)c4ccccc4n3)CC2)c1 [Example 1035, N-(cis-4-{[4-(dimethylamino)quinazolin-2-yl]amino}cyclohexyl)-2-(3-methoxyphenoxy)nicotinamide] | < 0.05
5 | CN(C)c1nc(N[C@H]2CC[C@@H](NC(=O)c3cccnc3Oc3cccc(OC(F)(F)F)c3)CC2)nc2ccccc12 [Example 1036, N-(cis-4-{[4-(dimethylamino)quinazolin-2-yl]amino}cyclohexyl)-2-[3-(trifluoromethoxy)phenoxy]nicotinamide] | < 0.05
6 | CN(C)c1nc(N[C@H]2CC[C@@H](NC(=O)c3cccnc3Oc3ccc(OC(F)(F)F)cc3)CC2)nc2ccccc12 [Example 1037, N-(cis-4-{[4-(dimethylamino)quinazolin-2-yl]amino}cyclohexyl)-2-[4-(trifluoromethoxy)phenoxy]nicotinamide] | < 0.05
7 | CN(C)c1nc(N[C@H]2CC[C@@H](NC(=O)c3cccnc3Oc3ccc(F)c(F)c3)CC2)nc2ccccc12 [Example 1038, 2-(3,4-difluorophenoxy)-N-(cis-4-{[4-(dimethylamino)quinazolin-2-yl]amino}cyclohexyl)nicotinamide] | < 0.05
8 | COc1cc(OC)cc(Oc2ncccc2C(=O)N[C@H]2CC[C@@H](Nc3nc(N(C)C)c4ccccc4n3)CC2)c1 [Example 1039, 2-(3,5-dimethoxyphenoxy)-N-(cis-4-{[4-(dimethylamino)quinazolin-2-yl]amino}cyclohexyl)nicotinamide] | < 0.05
9 | COc1cccc(Oc2ncccc2C(=O)N[C@H]2CC[C@@H](Nc3nc(N(C)C)c4ccccc4n3)CC2)c1OC [Example 1040, 2-(2,3-dimethoxyphenoxy)-N-(cis-4-{[4-(dimethylamino)quinazolin-2-yl]-amino}cyclohexyl)nicotinamide] | < 0.05
10 | COc1cc(Oc2ncccc2C(=O)N[C@H]2CC[C@@H](Nc3nc(N(C)C)c4ccccc4n3)CC2)cc(OC)c1OC [Example 1041, N-(cis-4-{[4-(dimethylamino)quinazolin-2-yl]amino}cyclohexyl)-2-(3,4,5-trimethoxyphenoxy)nicotinamide] | < 0.05
11 | CN(C)c1nc(N[C@H]2CC[C@@H](NC(=O)c3cccnc3Oc3ccc(Cl)c(F)c3)CC2)nc2ccccc12 [Example 1042, 2-(4-chloro-3-fluorophenoxy)-N-(cis-4-{[4-(dimethylamino)quinazolin-2-yl]amino}cyclohexyl)nicotinamide] | < 0.05
12 | CN(C)c1nc(N[C@H]2CC[C@@H](NC(=O)c3cccnc3Oc3ccc(F)c(Cl)c3)CC2)nc2ccccc12 [Example 1043, 2-(3-chloro-4-fluorophenoxy)-N-(cis-4-{[4-(dimethylamino)quinazolin-2-yl]amino}cyclohexyl)nicotinamide] | < 0.05
13 | COc1ccc(CN[C@@H]2CC[C@H](Nc3nc(N(C)C)c4ccccc4n3)C2)c(OC)c1 [Example 1044, N2-{(1S,3R)-3-[(2,4-dimethoxybenzyl)amino]cyclopentyl}-N4,N4-dimethylquinazoline-2,4-diamine] | > 0.2
14 | CN(C)c1nc(N[C@H]2CC[C@@H](NCc3ccc(OC(F)(F)F)cc3)C2)nc2ccccc12 [Example 1047, N4,N4-dimethyl-N2-((1S,3R)-3-{[4-(trifluoromethoxy)benzyl]-amino}cyclopentyl)quinazoline-2,4-diamine] | > 0.2
15 | CN(C)c1nc(N[C@H]2CC[C@@H](NCc3ccc(Br)cc3OC(F)(F)F)C2)nc2ccccc12 [Example 1048, N2-((1S,3R)-3-{[4-bromo-2-(trifluoromethoxy)benzyl]-amino}cyclopentyl)-N4,N4-dimethylquinazoline-2,4-diamine] | > 0.2
16 | CN(C)c1nc(N[C@H]2CC[C@@H](NCc3ccc(F)c(F)c3)C2)nc2ccccc12 [Example 1049, N2-{(1S,3R)-3-[(3,4-difluorobenzyl)amino]cyclopentyl}-N4,N4-dimethylquinazoline-2,4-diamine] | > 0.2

The next lines start with the values.

Row | IC50 [µM] | Structure (SMILES)
17 | < 0.05 | CN(C)c1nc(N[C@H]2CC[C@@H](NC(=O)c3ccc(Oc4ccccc4F)nc3)CC2)nc2ccccc12 [Example 1050, N-(cis-4-{[4-(dimethylamino)quinazolin-2-yl]amino}cyclohexyl)-6-(2-fluorophenoxy)nicotinamide]
18 | > 0.2 | CN(C)c1nc(N[C@H]2CC[C@@H](NC(=O)c3ccc(Oc4ccccc4Cl)nc3)CC2)nc2ccccc12 [Example 1051, 6-(2-chlorophenoxy)-N-(cis-4-{[4-(dimethylamino)quinazolin-2-yl]amino}cyclohexyl)nicotinamide]
19 | > 0.2 | CN(C)c1nc(N[C@H]2CC[C@@H](NC(=O)c3ccc(Oc4ccccc4Br)nc3)CC2)nc2ccccc12 [Example 1052, 6-(2-bromophenoxy)-N-(cis-4-{[4-(dimethylamino)quinazolin-2-yl]amino}cyclohexyl)nicotinamide]
20 | < 0.05 | COc1ccccc1Oc1ccc(C(=O)N[C@H]2CC[C@@H](Nc3nc(N(C)C)c4ccccc4n3)CC2)cn1 [Example 1054, N-(cis-4-{[4-(dimethylamino)quinazolin-2-yl]amino}cyclohexyl)-6-(2-methoxyphenoxy)nicotinamide]
21 | < 0.05 | COc1cccc(Oc2ccc(C(=O)N[C@H]3CC[C@@H](Nc4nc(N(C)C)c5ccccc5n4)CC3)cn2)c1 [Example 1056, N-(cis-4-{[4-(dimethylamino)quinazolin-2-yl]amino}cyclohexyl)-6-(3-methoxyphenoxy)nicotinamide]
22 | < 0.05 | CN(C)c1nc(N[C@H]2CC[C@@H](NC(=O)c3ccc(Oc4cccc(C(F)(F)F)c4)nc3)CC2)nc2ccccc12 [Example 1057, N-(cis-4-{[4-(dimethylamino)quinazolin-2-yl]amino}cyclohexyl)-6-[3-(trifluoromethyl)phenoxy]nicotinamide]
23 | > 0.2 | CN(C)c1nc(N[C@H]2CC[C@@H](NC(=O)c3ccc(Oc4ccc(F)cc4)nc3)CC2)nc2ccccc12 [Example 1059, N-(cis-4-{[4-(dimethylamino)quinazolin-2-yl]amino}cyclohexyl)-6-(4-fluorophenoxy)nicotinamide]
24 | < 0.05 | CN(C)c1nc(N[C@H]2CC[C@@H](NC(=O)c3ccc(Oc4ccc(Cl)cc4)nc3)CC2)nc2ccccc12 [Example 1060, 6-(4-chlorophenoxy)-N-(cis-4-{[4-(dimethylamino)quinazolin-2-yl]amino}cyclohexyl)nicotinamide]
